Read-outs that look alike come from different tables or passages of the source.
Experiments:
HBV = tested on: HBV; parameters: method as in earlier work; conditions: ref 25 (Shimura et al.); read-out: IC50 in vitro HBV infection; cited from earlier work
NTCP [1] = molecular target: T1, NTCP (Homo sapiens, UniProt Q14973); parameters: method as in earlier work; conditions: ref 25 (Shimura et al.); read-out: IC50 bile acid transport inhibition; cited from earlier work
T1 construct: expressed in transfected cells
T1 sequence (Q14973 1-349): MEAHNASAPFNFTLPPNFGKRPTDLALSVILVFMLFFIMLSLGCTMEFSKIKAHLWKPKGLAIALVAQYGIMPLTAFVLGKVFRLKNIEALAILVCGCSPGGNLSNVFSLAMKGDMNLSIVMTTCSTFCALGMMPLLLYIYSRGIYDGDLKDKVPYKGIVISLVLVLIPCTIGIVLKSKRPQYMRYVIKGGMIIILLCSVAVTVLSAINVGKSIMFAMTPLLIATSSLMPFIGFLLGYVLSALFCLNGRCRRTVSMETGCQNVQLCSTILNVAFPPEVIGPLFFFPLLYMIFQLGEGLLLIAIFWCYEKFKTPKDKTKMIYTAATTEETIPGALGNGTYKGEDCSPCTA

HDV = assay: in vitro HDV infection of NTCP-HepG2 cells; type: cell-based; conditions: for inhibition of in vitro HDV infection: 5–300 µM (2, 19) or 5–600 µM (4, 17), 6 h with 700 genome equivalents/cell, HDAg immunostaining day 9
Protocol: At day 9 post infection, cells were fixed and an immunostaining against the HDAg was performed, as a marker of HDV infection. The number of infected cells per well was determined by fluorescence microscopy. NTCP-HepG2 cells incubated without inhibitor were used as control (set to 100% infection rate). Infection experiments in the presence of 0.5 µM myr-preS1_2-48 peptide served as control for the 0% infection rate. Scale bars: 100 µm. Data represent means ± SEM of three independent experiments each with triplicate determinations (n = 9). […] Data were combined from two independent experiments, each with quadruplicate determinations (n = 8). (h) Cell viability was determined with an LDH cytotoxicity assay. HepG2 cells treated with HGM w/o test compound were used as positive control and lysed cells as negative control.
For infection experiments NTCP-HepG2 cells were cultured in 96-well plates in Hepatocyte Growth Medium (HGM) consisting of William’s E Medium (Thermo Fisher Scientific) containing 2% bovine serum albumin (BSA, Roth), 2 mM L-Glutamin (Thermo Fisher Scientific), 100 µg/ml gentamicin (Thermo Fisher Scientific), 10 nM dexamethasone (Sigma-Aldrich), 1 mM sodium pyruvate (Thermo Fisher Scientific), 1 × Insulin-Transferrin-Selen (Thermo Fisher Scientific), 2% DMSO (Merck, Darmstadt, Germany), 4% polyethylene glycol (Sigma-Aldrich) and 2 µg/ml doxycycline (Sigma-Aldrich) as reported. Subsequently, cells were washed with DMEM and cultured in HGM supplemented with 2% DMSO, 2% BSA and 2 µg/ml doxycycline. […] HDV stock solved in 20 µl HGM per well was added for infection and cells were incubated for 6 h with final concentration of 700 genome equivalents/cell of HDV particles. HDV production was done in vitro as described before[55],[56]. RT-qPCR was performed to determine genome equivalents. Every three days medium was changed until cells were fixed at 9 days post infection with 3% paraformaldehyde (Sigma-Aldrich) in PBS, for 30 min at room temperature (RT). Cells were permeabilized with 0.2% Triton X 100 (Roth) in PBS for 30 min at RT, and blocked by incubation with 5% bovine serum albumin (Roth) in PBS, for 30 min at RT. Then, cells were immunostained with purified human anti-HDV-positive serum at 37 °C for 1 h (1:400 dilution). Goat anti-human IgG secondary antibody coupled to Alexa Fluor fluorophore (1:400 dilution, Thermo Fisher Scientific) was added for 1 h at 37 °C for detection of Hepatitis Delta antigen (HDAg) as described before.

NTCP [2] = molecular target: T1, NTCP; assay: [3H]preS1 (myr-preS1_2-48 lipopeptide) binding inhibition in NTCP-HEK293 cells; conditions: for IC50: NTCP-HEK293 cells
Protocol: (§1) The major goal of the present study was to analyze in parallel the effect of inhibitors on both, bile acid transport via NTCP and myr-preS1_2-48 lipopeptide binding to NTCP in a cell culture system. […] NTCP-HEK293 cells were seeded onto 96-well plates and were incubated with tetracycline in order to induce expression of the human NTCP protein. […] Experiments were performed with solvent alone (set to 100%) and with increasing concentrations of the indicated inhibitors. […] Half maximal inhibitory concentrations (IC50) were calculated by nonlinear regression analysis using the equation log(inhibitor) versus response (GraphPad Prism). […] Data represent means ± SD of quadruplicate determinations of representative experiments. […] In parallel, [^3H]preS1 peptide binding experiments were performed with a tritium-labelled myr-preS1_2-48 lipopeptide -HBV subgenotype D3- that was purchased from Pharmaron (120 Ci/mmol, 1 mCi/ml, Cardiff, UK). […] Experiments were stopped after 10 min by two-times washing with ice-cold PBS. For 0% uptake/binding control, the NTCP-HEK293 cells were not induced with tetracycline (-tet). […] Transport rates and [^3H]preS1 binding were determined in counts per minute (cpm). […] IC50 values were calculated from quadruplicate determinations by GraphPad Prism 6 (GraphPad, San Diego, CA, USA).

NTCP [3] = molecular target: T1, NTCP; assay: [3H]TC transport (bile acid uptake) inhibition in NTCP-HEK293 cells; type: cell-based; conditions: read-out: IC50 ([3H]TC uptake)
Protocol: as §1

mice = conditions: cited from earlier work
rats = conditions: single i.p. application of 400 mg/kg; cited from earlier work
HBV/HDV = tested on: HBV/HDV; parameters: method as in PMID 15650187; conditions: cited from earlier work

For `CC=CCC(C)C(O)C1C(=O)NC(CC)C(=O)N(C)C(OCCOC)C(=O)N(C)C(CC(C)(C)O)C(=O)NC(C(C)C)C(=O)N(C)C(CC(C)C)C(=O)NC(C)C(=O)NC(C)C(=O)N(C)C(CC(C)C)C(=O)N(C)C(CC(C)C)C(=O)N(C)C(C(C)C)C(=O)N1C` (stereo not shown) [SCY995], the IC50 (HBV) is listed as under 8 µM and the IC50 (NTCP [1]) is listed as over 25 µM.
In the case of `C=C(C)[C@@H]1CC[C@]2(C(=O)N[C@@H](CC(=O)OC)C(=O)OC)CC[C@]3(C)[C@H](CC[C@@H]4[C@@]5(C)CCC(=O)C(C)(C)[C@@H]5CC[C@]43C)[C@@H]12` [Compound 19, Betulonoyl dimethyl-L-aspartate], the “inhibition of in vitro HDV infection” value (HDV) is reported as “significantly blocked”, the IC50 (NTCP [2]; mean IC50, 5 nM [3H]preS1, standard pH 7.4, read-out: IC50 [3H]preS1 binding inhibition) is reported as 11 to 50 µM and the Selectivity index (NTCP [2]; ratio of mean IC50 [3H]TC transport inhibition / IC50 [3H]preS1 binding inhibition) is reported as 28. The IC50 (NTCP [3]; 95% confidence interval, inhibition of 1 µM [3H]TC uptake, NTCP-HEK293 cells, 10 min, 37 °C) was 298 to 1430 µM.
For `C=C(C)[C@@H]1CC[C@]2(C(=O)O)CC[C@]3(C)[C@H](CC[C@@H]4[C@@]5(C)CC[C@H](O)C(C)(C)[C@@H]5CC[C@]43C)[C@@H]12` [Compound 4, Betulinic acid], the “toxic effects in mice, repeated dose” value (mice; 100 mg/kg i.p. every 3–4 days for a total of six treatments) is given as “no toxic effects were observed”, the “toxic effects in mice, single dose” value (mice; 500 mg/kg i.p. once) is given as “no toxic effects were observed” and the “inhibition of in vitro HDV infection” value (HDV) is given as “significantly blocked”. For the same compound, the “toxic effects in rats” value (rats) was “no toxic effects were observed”.
In the case of `C=C(C)[C@@H]1CC[C@]2(C)CC[C@]3(C)[C@H](CC[C@@H]4[C@@]5(C)CCC(=O)C(C)(C)[C@@H]5CC[C@]43C)[C@@H]12` [Compound 17, Lupenone], the “inhibition of in vitro HDV infection” value (HDV) is reported as “significantly blocked”, the IC50 (NTCP [2]; IC50 ([3H]preS1 binding), 95% confidence interval, inhibition of 5 nM [3H]preS1 binding, 10 min, 37 °C) is reported as 13.1 to 35.5 µM and the IC50 (NTCP [2]; IC50 [3H]preS1 binding inhibition, mean IC50, 5 nM [3H]preS1, standard pH 7.4) is reported as 11 to 50 µM. The IC50 (NTCP [3]) was 146 to 397 µM.
In the case of `CCCCCCCCCCCCCC(=O)NCC(=O)N[C@@H](CCC(N)=O)C(=O)N[C@@H](CC(N)=O)C(=O)N[C@@H](CC(C)C)C(=O)N[C@@H](CO)C(=O)N[C@H](C(=O)N[C@@H](CO)C(=O)N[C@@H](CC(N)=O)C(=O)N1CCC[C@H]1C(=O)N[C@@H](CC(C)C)C(=O)NCC(=O)N[C@@H](Cc1ccccc1)C(=O)N[C@@H](Cc1ccccc1)C(=O)N1CCC[C@H]1C(=O)N[C@@H](CC(=O)O)C(=O)N[C@@H](Cc1c[nH]cn1)C(=O)N[C@@H](CCC(N)=O)C(=O)N[C@@H](CC(C)C)C(=O)N[C@@H](CC(=O)O)C(=O)N1CCC[C@H]1C(=O)N[C@@H](C)C(=O)N[C@@H](Cc1ccccc1)C(=O)N[C@@H](CCCNC(=N)N)C(=O)N[C@@H](C)C(=O)N[C@@H](CC(N)=O)C(=O)N[C@H](C(=O)N[C@@H](C)C(=O)N[C@@H](CC(N)=O)C(=O)N1CCC[C@H]1C(=O)N[C@@H](CC(=O)O)C(=O)N[C@@H](Cc1c[nH]c2ccccc12)C(=O)N[C@@H](CC(=O)O)C(=O)N[C@@H](Cc1ccccc1)C(=O)N[C@@H](CC(N)=O)C(=O)N1CCC[C@H]1C(=O)N[C@@H](CC(N)=O)C(=O)N[C@@H](CCCCN)C(=O)N[C@@H](CC(=O)O)C(=O)N[C@H](C(=O)N[C@@H](Cc1c[nH]c2ccccc12)C(=O)N1CCC[C@H]1C(=O)N[C@@H](CC(=O)O)C(=O)N[C@@H](C)C(=O)N[C@@H](CC(N)=O)C(=O)N[C@@H](CCCCN)C(=O)N[C@H](C(=O)NCC(N)=O)C(C)C)[C@@H](C)O)[C@@H](C)O)[C@@H](C)O` [myr-preS1_2-48 lipopeptide, reference compound], the “IC50 of in vitro HBV/HDV infection” value (HBV/HDV) is given as “low nanomolar range” and the “in vitro HDV infection with peptide control” value (HDV; co-incubation with 0.5 µM, set to 0% infection rate) is given as “completely abolished infection”.

Source: publication PMC7729925, “Selective hepatitis B and D virus entry inhibitors from the group of pentacyclic lupane-type betulin-derived triterpenoids” (Scientific Reports, 2020)
